From patent US10854312B2, “Selective peptide antagonists” (BIONIZ, LLC, priority 2013, dated 2020)
Entries after “also recorded” stand apart in the source; their conditions may differ. No end group written: not given here. MAL‑PEG24 = bi-functional PEG24 molecule (Mal-PEG24)

Columns and labels:
Format in all cases: cell-based
human IL-2 = experiment: CTLL-2 proliferation assay (WST-1), IL-2; settings: IL-2 5 and 10 units/ml, BNZ132-PEG-130 0.1-10 μM, WST-1
Experimental: (§1) FIG. 6A-FIG. 6E presents inhibitory spectrum of BNZ132-1 over γc- and non-γc-cytokines. […] Neutralizing antibodies against each cytokine (R & D systems, 5 μg ml^−1) were included as controls. After 20 h, the cells were pulsed with WST-1 (Clontech) and OD450 of each well was measured after 6 h. A 19-mer scrambled peptide was used as a negative control at 5 μM. The experiments were conducted in triplicate (applies to all experiments in FIG. 6A-FIG. 6E). The result represents one of at least three independent experiments (applies to all experiments in FIG. 6A-FIG. 6E). […] In PT-18 proliferation assay, PT-18β or PT-18h21Rα cells were withdrawn of mouse IL-3 for 12 h before the experiment. Cells were then incubated with 1 nM of mouse IL-4, mouse IL-9, or mouse IL-21 in the presence or absence of the indicated doses (μM) of BNZ132-1. Neutralizing antibodies to each cytokine (5 μg ml^−1, except for anti-mouse IL-21 polyclonal antibody which was used at 15 μg ml−1) and a scrambled control peptide (5 μM) were included as negative controls. WST-1 assay was conducted as described above. […] In PT-18 h21Rα survival assay, PT-18h21Rα cells are described in the text. […] Both parental and hIL-21Rα positive PT-18 cells were washed and incubated without IL-3 for 12 h before the assay. […] The Y-axis represents the cpm (count per minute) values measured by a β-counter. […]

human IL-15 = experiment: CTLL-2 proliferation assay (WST-1), IL-15; settings: IL-15 2.5 and 5 ng/ml, BNZ132-PEG-130 0.1-10 μM, WST-1
Experimental: as §1

IL-6 = experiment: T1165 cell proliferation assay, IL-6; settings: IL-6 0.1 ng/ml, BNZ132-PEG-130 0.1-10 μM, 24 hours, WST-1
Experimental: CTLL2 cells are cultured in the presence of 5 u/ml and 10 u/ml of IL-2 (FIG. 10A) and 2.5 ng/ml and 5 ng/ml of IL-15 (FIG. 10B) in the presence of increasing concentration of BNZ132-PEG-130. T1165 cells are cultured with 0.1 ng/ml of IL-6 (FIG. 10C) and increasing concentration of BNZ132-PEG-130. […] BNZ132-1 was conjugated to BNZ130 via a PEG24 linker. The name of the bi-antagonist peptide is BNZ132-PEG-130. FIG. 10A and FIG. 10B show the results of BNZ132-PEG-130 in IL-2 (FIG. 10A) and IL-15 (FIG. 10B) CTLL2 proliferation assay. Cells were washed and incubated with IL-2 (5 and 10 units/ml), IL-15 (2.5 and 5 ng/ml) in the presence or absence of BNZ132-PEG-130 (0.1-10 μM). Cells were then pulsed with the WST-1 reagent to measure the proliferative response for the next 6 hr (OD450). […] Cells are washed and incubated with IL-6 (0.1 ng/ml) in the presence or absence of BNZ132-PEG-130 (0.1-10 μM) for 24 hours. Cells were then pulsed with WST-1 reagent for the following 6 hr to measure OD450. The BNZ130-1 polypeptide as presented in Table 2, above, is tested for its activity in inhibiting IL-6 activity. T1165 cells that are dependent on human or mouse IL-6 for their growth in vitro are selected. The cell line is cultured in the absence of IL-6, In the presence of IL-6, in the presence of BNZ130-1, and in the presence of IL-6 and BNZ130-1.

## IKEFLQSFIHIVQSIINT (SEQ ID NO: 130)—MAL-PEG24—SLTHLIERSSRAVLQSLLRASRQ (SEQ ID NO: 131) (linker (positions not given here) via MAL‑PEG24; also: MAL-PEG24 linker joins the two peptides, attachment points not given here) [BNZ132-PEG-130, BNZ132-1 conjugated to BNZ130 via a PEG24 linker; dual peptide antagonist]
Human IL-2
  inhibition of IL-2-induced proliferation of CTLL2 cells: inhibiting; also recorded: inhibited in a dose response manner
Human IL-15
  inhibition of IL-15-induced proliferation of CTLL2 cells: inhibiting; also recorded: inhibited in a dose response manner
IL-6
  inhibition of IL-6-induced proliferation of T1165 cells: inhibiting; also recorded: inhibited in a dose response manner
